Experimental data as given in PMC5847527, “Identification of a novel 2-oxindole fluorinated derivative as in vivo antitumor agent for prostate cancer acting via AMPK activation” (Scientific Reports, 2018).

Columns and labels:
[1] = test system: PC-3, DU145 and LNCaP cells; assay: Cell viability by cell counting (Trypan blue); type: cell-based; conditions: 25 µM
Procedure: Figure 3 Comparison of the effect of 2-oxindole fluorinated derivatives on the proliferation of human prostate cancer cells. (A) Normal (PTN2 and RWPE-1) and cancer (PC3,DU145 and LNCaP) prostate cells were treated with different doses of the compounds for 24 hours and cell viability was monitored by MTT assay. […] (C) PC-3, DU145 and LNCaP cells were treated with 25 µM of compound 8c for different times. Values were normalized with the control and represent the mean ± SD of at least three independent experiments. *p < 0.05 and **p < 0.01 compared to control by the Student’s - test.
To confirm the antiproliferative effect of compound 8c, cell viability was evaluated by cell counting at different times in PC-3, DU145 and LNCaP cells.
Cell viability was determined by 3-(4,5-dimethylthiazol-2-yl)-2,5-diphenyltetrazolium bromide (MTT) (Sigma-Aldrich) method. […] The optical density in each well was evaluated by measurement of absorbance at 490 and 650 nm using a microplate reader (ELX 800 Bio-Tek Intruments, INC). IC50 values were calculated using GraphPad Prism vs 6.0 (GraphPad Software, Inc, La Jolla, CA, USA). Cell viability was also determined by counting viable and dead cells by Trypan blue staining. Trypan blue positive and negative cells were counted using a Countess^TM automated cell counter (Invitrogen, Carlsbad, CA, USA). […]

[2] = test system: cleaved Caspase 3 (17 kDa fragment); assay: Cleaved Caspase 3 level by Western blot in prostate cells; type: cell-based, human
Procedure: Figure 4 Cell Cycle analysis in 8c-treated prostate cancer cells. (A) PC-3 and LNCaP cells were treated with compound 8c for 24 hours and cell cycle analysis was analyzed by flow cytometry using Propidium Iodide (PI). Percentage of cells in subG0, G1, S, and G2/M phases is indicated in the histogram. (B) Levels of Cyclin D1, p-p53, p53, p21 and cleaved Caspase 3 (17 kDa fragment) were determined by Western blot. Upper panel, representative Western blot of two different experiments. β-tubulin (β-Tub) serves as a loading control. […]
Cyclin D1 activity is modulated by several inhibitors such as p21 which negatively regulate cell cycle progression by interacting with cyclin dependent kinases (cdks). […] To further study the role of compound 8c in cell cycle, we determined the expression of p21, p53 and the levels of cleaved caspase 3 in the prostate cells. P53 was only determined in LNCaP cells since PC-3 cells are p53-negative[40].
(§1) Cells were lysed in Lysis buffer (50 mM Tris pH 7.4, 0.8 M NaCl, 5 mM MgCl2, 0.1% Triton X-100) containing Protease Inhibitor and Phosphatase inhibitor Cocktails (Roche, Basel, Switzerland). Protein concentrations were measured by BioRad™ protein assay kit (Richmond, CA, USA). […] Films were analyzed by densitometry. […]

AMPK = AMPK and ACC phosphorylation by Western blot in LNCaP cells; type: cell-based, human; conditions: 25 µM, 1 hour
Procedure: Figure 2 Effect of 2-oxindole fluorinated derivatives on AMPK activity in prostate cancer cells. (A) PC-3, DU145 and LNCaP cells were treated with 25 µM of the selected 2-oxindole fluorinated derivatives for 1 hour. Levels of the phosphorylated AMPK (pAMPK), phosphorylated ACC (pACC) and their total forms were determined by Western blot. Upper panel, a representative Western blot of three different experiments. β-tubulin (β-Tub) serves as a loading control. […] Lower panels, densitometric analyses of bands represented as the mean of the ratio pAMPK/AMPK or pACC/ACC ± SD of three different experiments. *p < 0.05 compared with the controls by one-way ANOVA followed by Fisher’s LSD test; ^#p < 0.05 compared with 2-oxindole fluorinated derivates or with the AMPK activators AMP or A769662 by one-way ANOVA followed by Tukey test.
Similar results were obtained although AMPK stimulation by compound 8c was not so strong (Fig. 2A). […]
as §1

O=C1Nc2ccccc2C1(F)Cc1ccc(-c2ccccc2)o1 (stereo not drawn) [Compound 8c, 3-fluoro-3-((5-phenylfuran-2-yl)methyl)indolin-2-one]
cytotoxic effect by cell counting at different times [1]: time-dependent strong cytotoxic effect | cleaved caspase 3 (17 kDa fragment) [2]: increase in cleaved caspase 3 | AMPK phosphorylation (pAMPK/AMPK) (AMPK): notably activated AMPK
